Measurements published in PMC5218480 (PLoS ONE, 2017).

Test system: MV-4-11 cells
Experiment: Gene expression microarray analysis (Affymetrix PrimeView) and GSEA
Type: cell-based, human
Parameters: RFU PODN (11730768_x_at) / Fold change /veh PODN (11730768_x_at) / RFU LINC00158 (11744669_a_at) / Fold change /veh LINC00158 (11744669_a_at) / RFU DUSP10 (11751237_a_at) / Fold change /veh DUSP10 (11751237_a_at) / RFU ID3 (11757404_x_at) / Fold change /veh ID3 (11757404_x_at) / RFU PLEKHG5 (11737974_s_at) / Fold change /veh PLEKHG5 (11737974_s_at) / RFU LRRC4B (11730491_at) / Fold change /veh LRRC4B (11730491_at) / RFU GIMAP4 (11747438_a_at) / Fold change /veh GIMAP4 (11747438_a_at) / RFU KRT8 (11758183_x_at) / Fold change /veh KRT8 (11758183_x_at) / RFU CNN1 (11734310_a_at) / Fold change /veh CNN1 (11734310_a_at) / RFU VPS37D (11726825_at) / Fold change /veh VPS37D (11726825_at) / RFU C10orf10 (11716522_x_at) / Fold change /veh C10orf10 (11716522_x_at) / RFU KIR2DL2 /// KIR2DL4 /// KIR2DL5A /// KIR2DL5B /// KIR2DS1 /// KIR2DS2 /// KIR2DS3 /// KIR2DS4 /// KIR3DL3 /// KIR3DL3 /// KIR3DS1 (11738374_at) / Fold change /veh KIR2DL2 /// KIR2DL4 /// KIR2DL5A /// KIR2DL5B /// KIR2DS1 /// KIR2DS2 /// KIR2DS3 /// KIR2DS4 /// KIR3DL3 /// KIR3DL3 /// KIR3DS1 (11738374_at) / RFU C1QL1 (11718748_at) / Fold change /veh C1QL1 (11718748_at) / RFU TMPRSS4 (11747572_a_at) / Fold change /veh TMPRSS4 (11747572_a_at) / RFU HAMP (11756126_x_at) / Fold change /veh HAMP (11756126_x_at) / RFU RNFT2 (11725882_a_at) / Fold change /veh RNFT2 (11725882_a_at) / RFU NR4A2 (11747474_a_at) / Fold change /veh NR4A2 (11747474_a_at) / RFU ABCC12 (11746883_a_at) / Fold change /veh ABCC12 (11746883_a_at) / RFU TMEM136 (11760407_x_at) / Fold change /veh TMEM136 (11760407_x_at) / RFU CLDN22 /// WWC2 (11732394_at) / Fold change /veh CLDN22 /// WWC2 (11732394_at) / RFU HLA-DPB1 (11760878_x_at) / Fold change /veh HLA-DPB1 (11760878_x_at) / RFU SPINT1 (11716480_a_at) / Fold change /veh SPINT1 (11716480_a_at) / RFU GAP43 (11754022_s_at) / Fold change /veh GAP43 (11754022_s_at) / RFU A4GNT (11735810_at) / Fold change /veh A4GNT (11735810_at) / RFU PRB3 (11715151_x_at) / Fold change /veh PRB3 (11715151_x_at) / RFU TUBB4B (11761932_at) / Fold change /veh TUBB4B (11761932_at) / RFU CAPN14 (11732068_a_at) / Fold change /veh CAPN14 (11732068_a_at) / RFU TMCC2 (11721928_a_at) / Fold change /veh TMCC2 (11721928_a_at) / RFU IRGQ (11745062_a_at) / Fold change /veh IRGQ (11745062_a_at) / RFU FAM174B (11720279_a_at) / Fold change /veh FAM174B (11720279_a_at) / RFU TMPRSS4 (11748680_a_at) / Fold change /veh TMPRSS4 (11748680_a_at) / RFU FAM212B (11763350_a_at) / Fold change /veh FAM212B (11763350_a_at) / RFU PLEKHG5 (11743358_a_at) / Fold change /veh PLEKHG5 (11743358_a_at) / RFU ZSCAN30 (11745921_a_at) / Fold change /veh ZSCAN30 (11745921_a_at) / RFU CMKLR1 (11741424_a_at) / Fold change /veh CMKLR1 (11741424_a_at) / RFU LOC101060620 /// MAPK8IP1 (11723275_at) / Fold change /veh LOC101060620 /// MAPK8IP1 (11723275_at) / RFU SPTSSB (11747773_x_at) / Fold change /veh SPTSSB (11747773_x_at) / RFU PRSS12 (11739890_at) / Fold change /veh PRSS12 (11739890_at) / RFU BIN1 (11741810_x_at) / Fold change /veh BIN1 (11741810_x_at) / RFU WNT11 (11732464_a_at) / Fold change /veh WNT11 (11732464_a_at) / RFU C10orf10 (11716521_a_at) / Fold change /veh C10orf10 (11716521_a_at) / RFU C5orf56 (11738089_at) / Fold change /veh C5orf56 (11738089_at) / RFU CYB561 (11721691_x_at) / Fold change /veh CYB561 (11721691_x_at) / RFU ANKRD19P (11752326_a_at) / Fold change /veh ANKRD19P (11752326_a_at) / RFU OR2T12 /// OR2T33 /// OR2T8 (11738714_s_at) / Fold change /veh OR2T12 /// OR2T33 /// OR2T8 (11738714_s_at) / RFU VCAN (11748164_a_at) / Fold change /veh VCAN (11748164_a_at) / RFU JSRP1 (11732532_at) / Fold change /veh JSRP1 (11732532_at) / RFU KRTAP10-11 (11738290_x_at) / Fold change /veh KRTAP10-11 (11738290_x_at) / RFU MYO3A (11730013_a_at) / Fold change /veh MYO3A (11730013_a_at) / RFU EBF3 (11725865_a_at) / Fold change /veh EBF3 (11725865_a_at) / RFU CAMK2N1 (11719241_x_at) / Fold change /veh CAMK2N1 (11719241_x_at) / RFU C5orf56 (11738088_a_at) / Fold change /veh C5orf56 (11738088_a_at) / RFU OLFML3 (11715873_a_at) / Fold change /veh OLFML3 (11715873_a_at) / RFU LOC100653217 /// NTM (11731650_a_at) / Fold change /veh LOC100653217 /// NTM (11731650_a_at) / RFU MAPK11 (11762145_a_at) / Fold change /veh MAPK11 (11762145_a_at) / RFU FIZ1 (11724087_x_at) / Fold change /veh FIZ1 (11724087_x_at) / RFU OASL (11726364_x_at) / Fold change /veh OASL (11726364_x_at) / RFU SOX15 (11748057_x_at) / Fold change /veh SOX15 (11748057_x_at) / RFU CD79A (11719716_a_at) / Fold change /veh CD79A (11719716_a_at) / RFU HIST1H1D (11736915_at) / Fold change /veh HIST1H1D (11736915_at) / RFU CASKIN2 (11723855_a_at) / Fold change /veh CASKIN2 (11723855_a_at) / RFU LOC730098 (11760151_x_at) / Fold change /veh LOC730098 (11760151_x_at) / RFU OR4N2 (11742367_at) / Fold change /veh OR4N2 (11742367_at) / RFU PRRT2 (11749266_a_at) / Fold change /veh PRRT2 (11749266_a_at) / RFU SNX32 (11753110_a_at) / Fold change /veh SNX32 (11753110_a_at) / RFU CDHR5 (11726645_a_at) / Fold change /veh CDHR5 (11726645_a_at) / RFU RCAN1 (11760418_a_at) / Fold change /veh RCAN1 (11760418_a_at) / RFU FAM167A (11723789_a_at) / Fold change /veh FAM167A (11723789_a_at) / RFU FAM26E (11764081_at) / Fold change /veh FAM26E (11764081_at) / RFU ISYNA1 (11749810_s_at) / Fold change /veh ISYNA1 (11749810_s_at) / RFU ACY1 (11761880_at) / Fold change /veh ACY1 (11761880_at) / RFU 11764098_at / Fold change /veh 11764098_at / RFU SAMD14 (11745864_x_at) / Fold change /veh SAMD14 (11745864_x_at) / RFU NPB (11741838_a_at) / Fold change /veh NPB (11741838_a_at) / RFU TMPRSS6 (11731388_a_at) / Fold change /veh TMPRSS6 (11731388_a_at) / RFU KRTAP10-2 (11738614_at) / Fold change /veh KRTAP10-2 (11738614_at) / RFU ARHGAP8 /// PRR5-ARHGAP8 (11727945_x_at) / Fold change /veh ARHGAP8 /// PRR5-ARHGAP8 (11727945_x_at) / RFU KRTAP5-7 /// NADSYN1 (11734609_at) / Fold change /veh KRTAP5-7 /// NADSYN1 (11734609_at) / RFU RASL12 (11751679_a_at) / Fold change /veh RASL12 (11751679_a_at) / RFU CDKN2B (11736163_a_at) / Fold change /veh CDKN2B (11736163_a_at) / RFU PRF1 (11729649_at) / Fold change /veh PRF1 (11729649_at) / RFU, ZNF638 /// ZNF638-IT1 / Fold change vs veh, ZNF638 /// ZNF638-IT1 / RFU, PANK3 / Fold change vs veh, PANK3 / RFU, SH3YL1 / Fold change vs veh, SH3YL1 / RFU, ZEB2 / Fold change vs veh, ZEB2 / RFU, NRIP1 / Fold change vs veh, NRIP1 / RFU, PTTG1IP / Fold change vs veh, PTTG1IP / RFU, CAPN2 / Fold change vs veh, CAPN2 / RFU, MED14 / Fold change vs veh, MED14 / RFU, SNORA58 / Fold change vs veh, SNORA58 / RFU, C1orf63 / Fold change vs veh, C1orf63 / RFU, LRRFIP1 / Fold change vs veh, LRRFIP1 / RFU, NDUFAF7 / Fold change vs veh, NDUFAF7 / RFU, SLC12A2 / Fold change vs veh, SLC12A2 / RFU, IBTK / Fold change vs veh, IBTK / RFU, ESF1 / Fold change vs veh, ESF1 / Fold change vs veh, TMEM50B / RFU, TAOK1 / Fold change vs veh, TAOK1 / RFU, ACBD3 / Fold change vs veh, ACBD3 / RFU, TMA16 / Fold change vs veh, TMA16 / RFU, RWDD3 / Fold change vs veh, RWDD3 / RFU, BCAT1 / Fold change vs veh, BCAT1 / RFU, EDEM3 / Fold change vs veh, EDEM3 / RFU, TMEM33 / Fold change vs veh, TMEM33 / RFU, WDR75 / Fold change vs veh, WDR75 / RFU, AHCTF1 / Fold change vs veh, AHCTF1 / RFU, TFRC / Fold change vs veh, TFRC / RFU, ZDHHC17 / Fold change vs veh, ZDHHC17 / RFU, NOM1 / Fold change vs veh, NOM1 / RFU, ARL8B / Fold change vs veh, ARL8B / RFU, ZBTB11 / Fold change vs veh, ZBTB11 / RFU, TAMM41 / Fold change vs veh, TAMM41 / RFU, KIAA1704 /// LOC100996395 / Fold change vs veh, KIAA1704 /// LOC100996395 / RFU, ING1 / Fold change vs veh, ING1 / RFU, TRMT61B / Fold change vs veh, TRMT61B / RFU, FUBP3 / Fold change vs veh, FUBP3 / RFU, TP53 / Fold change vs veh, TP53 / RFU, TNKS2 / Fold change vs veh, TNKS2 / RFU, ZFP14 / Fold change vs veh, ZFP14 / RFU, ACTR2 / Fold change vs veh, ACTR2 / RFU, PPP3R1 / Fold change vs veh, PPP3R1 / RFU, PIK3R1 / Fold change vs veh, PIK3R1 / RFU, HNRNPA1 / Fold change vs veh, HNRNPA1 / RFU, RNF170 / Fold change vs veh, RNF170 / RFU, ZNF28 / Fold change vs veh, ZNF28 / RFU, RNGTT / Fold change vs veh, RNGTT / RFU, OGT / Fold change vs veh, OGT / RFU, BRD1 / Fold change vs veh, BRD1 / RFU, MARS / Fold change vs veh, MARS / RFU, ZNF655 / Fold change vs veh, ZNF655 / RFU, FAHD1 / Fold change vs veh, FAHD1 / RFU, BDP1 / Fold change vs veh, BDP1 / RFU, LRRCC1 / Fold change vs veh, LRRCC1 / RFU, ARID1A / Fold change vs veh, ARID1A / RFU, ZNF146 / Fold change vs veh, ZNF146 / RFU, ZNF330 / Fold change vs veh, ZNF330 / RFU, GPN3 / Fold change vs veh, GPN3 / RFU, C9orf123 / Fold change vs veh, C9orf123 / RFU, N4BP2L2 / Fold change vs veh, N4BP2L2 / RFU, ARFIP1 / Fold change vs veh, ARFIP1 / RFU, FAM179B / Fold change vs veh, FAM179B / RFU, BCL10 / Fold change vs veh, BCL10 / RFU, UHRF1BP1L / Fold change vs veh, UHRF1BP1L / RFU, BET1 / Fold change vs veh, BET1 / RFU, CNOT2 / Fold change vs veh, CNOT2 / RFU, ZNF268 / Fold change vs veh, ZNF268 / Fold change vs veh, ZNF507 / RFU, DGCR2 / Fold change vs veh, DGCR2 / RFU, WDSUB1 / Fold change vs veh, WDSUB1 / Fold change vs veh, HSP90B1 /// MIR3652 / RFU, ADSS / Fold change vs veh, ADSS / RFU, GK / Fold change vs veh, GK / RFU, ZNF148 / Fold change vs veh, ZNF148 / RFU, TAF9 / Fold change vs veh, TAF9 / RFU, SLC1A5 / Fold change vs veh, SLC1A5 / RFU, SLMO2 / Fold change vs veh, SLMO2 / RFU, ABCC4 / Fold change vs veh, ABCC4 / RFU, LOC101060439 /// RAP1B / Fold change vs veh, LOC101060439 /// RAP1B / RFU, RFX7 / Fold change vs veh, RFX7 / RFU, GTPBP10 / Fold change vs veh, GTPBP10 / RFU, CNEP1R1 / Fold change vs veh, CNEP1R1 / RFU, BIVM-ERCC5 /// ERCC5 / Fold change vs veh, BIVM-ERCC5 /// ERCC5 / RFU, ILF3 / Fold change vs veh, ILF3 / RFU 11762660_at / Fold change /veh 11762660_at / RFU VCAN (11757783_s_at) / Fold change /veh VCAN (11757783_s_at) / RFU DDX43 (11728927_at) / Fold change /veh DDX43 (11728927_at) / RFU KRT8 (11758188_x_at) / Fold change /veh KRT8 (11758188_x_at) / RFU NKD1 (11759106_at) / Fold change /veh NKD1 (11759106_at) / RFU SRD5A1 (11742802_a_at) / Fold change /veh SRD5A1 (11742802_a_at) / RFU TPSAB1 /// TPSB2 (11721975_s_at) / Fold change /veh TPSAB1 /// TPSB2 (11721975_s_at) / RFU GSTM3 (11746129_a_at) / Fold change /veh GSTM3 (11746129_a_at) / RFU IL23R (11737362_x_at) / Fold change /veh IL23R (11737362_x_at) / RFU TMEM51 (11727254_a_at) / Fold change /veh TMEM51 (11727254_a_at) / RFU PIWIL2 (11732686_x_at) / Fold change /veh PIWIL2 (11732686_x_at) / RFU ORM1 (11744905_x_at) / Fold change /veh ORM1 (11744905_x_at) / RFU CCDC152 (11743942_at) / Fold change /veh CCDC152 (11743942_at) / RFU ECM1 (11717891_a_at) / Fold change /veh ECM1 (11717891_a_at) / RFU IL23R (11748794_a_at) / Fold change /veh IL23R (11748794_a_at) / RFU TNFAIP8L3 (11732012_x_at) / Fold change /veh TNFAIP8L3 (11732012_x_at) / RFU MBOAT4 (11741988_at) / Fold change /veh MBOAT4 (11741988_at) / RFU 11764193_at / Fold change /veh 11764193_at / RFU TMEM53 (11763286_at) / Fold change /veh TMEM53 (11763286_at) / RFU MAGEB2 (11727129_at) / Fold change /veh MAGEB2 (11727129_at) / RFU TMEM200A (11744735_a_at) / Fold change /veh TMEM200A (11744735_a_at) / RFU CCDC152 (11751479_a_at) / Fold change /veh CCDC152 (11751479_a_at) / RFU FAM211A (11726209_a_at) / Fold change /veh FAM211A (11726209_a_at) / RFU RGS16 (11746705_a_at) / Fold change /veh RGS16 (11746705_a_at) / RFU VCAN (11755009_s_at) / Fold change /veh VCAN (11755009_s_at) / RFU RHOB (11743442_s_at) / Fold change /veh RHOB (11743442_s_at) / RFU RGS16 (11720943_a_at) / Fold change /veh RGS16 (11720943_a_at) / RFU RGS16 (11720944_at) / Fold change /veh RGS16 (11720944_at) / RFU, VPS4B / Fold change vs veh, VPS4B / RFU, CREB1 / Fold change vs veh, CREB1 / RFU, DNAJC13 / Fold change vs veh, DNAJC13 / RFU, GNAQ / Fold change vs veh, GNAQ / RFU, CDK5R1 / Fold change vs veh, CDK5R1 / RFU, ZRANB3 / Fold change vs veh, ZRANB3 / RFU, CUL4A / Fold change vs veh, CUL4A / RFU, CCNY / Fold change vs veh, CCNY / RFU, UFL1 / Fold change vs veh, UFL1 / RFU, COG3 / Fold change vs veh, COG3 / RFU, DIAPH2 / Fold change vs veh, DIAPH2 / RFU, SKA2 / Fold change vs veh, SKA2 / RFU, AFF3 / Fold change vs veh, AFF3 / RFU, LMF1 / Fold change vs veh, LMF1 / RFU, IPO11 / Fold change vs veh, IPO11 / RFU, DFFB / Fold change vs veh, DFFB / RFU, FOXP1 / Fold change vs veh, FOXP1 / RFU, CARD8 / Fold change vs veh, CARD8 / RFU, STRN3 / Fold change vs veh, STRN3 / RFU, ADK / Fold change vs veh, ADK / RFU, RASSF2 / Fold change vs veh, RASSF2 / RFU, WIPF1 / Fold change vs veh, WIPF1 / RFU, LARP1B / Fold change vs veh, LARP1B / RFU, RASA1 / Fold change vs veh, RASA1 / RFU, RB1 / Fold change vs veh, RB1 / RFU, PPFIA1 / Fold change vs veh, PPFIA1 / RFU, MAT2A / Fold change vs veh, MAT2A / RFU, CCT5 / Fold change vs veh, CCT5 / RFU, WDR92 / Fold change vs veh, WDR92 / RFU, CUX1 / Fold change vs veh, CUX1 / RFU, TTC7A / Fold change vs veh, TTC7A / RFU, TMEM135 / Fold change vs veh, TMEM135 / RFU, DEPTOR / Fold change vs veh, DEPTOR / RFU, CPM / Fold change vs veh, CPM / RFU, DNAJB6 / Fold change vs veh, DNAJB6 / RFU, CACNA2D3 / Fold change vs veh, CACNA2D3 / RFU, DTX4 / Fold change vs veh, DTX4 / RFU, TFCP2 / Fold change vs veh, TFCP2 / RFU, GMCL1 /// GMCL1P1 / Fold change vs veh, GMCL1 /// GMCL1P1 / RFU, AEBP2 / Fold change vs veh, AEBP2 / RFU, SNHG1 /// SNORD22 /// SNORD25 /// SNORD26 /// SNORD27 /// SNORD28 /// SNORD29 /// SNORD31 / Fold change vs veh, SNHG1 /// SNORD22 /// SNORD25 /// SNORD26 /// SNORD27 /// SNORD28 /// SNORD29 /// SNORD31 / Fold change (Aza/veh), C12orf56 (ProbeSet 11735607_a_at) / Fold change (ACY-1035/veh), C12orf56 (ProbeSet 11735607_a_at) / Fold change (Aza/veh), FGFR1OP (ProbeSet 11751329_s_at) / Fold change (ACY-1035/veh), FGFR1OP (ProbeSet 11751329_s_at) / Fold change (Aza/veh), VPS36 (ProbeSet 11739960_a_at) / Fold change (ACY-1035/veh), VPS36 (ProbeSet 11739960_a_at) / RFU SYPL1 (11715823_x_at) / Fold change /veh SYPL1 (11715823_x_at) / RFU IGFBP7 (11715501_s_at) / Fold change /veh IGFBP7 (11715501_s_at) / RFU REEP3 (11722064_at) / Fold change /veh REEP3 (11722064_at) / RFU IGLL1 (11728026_x_at) / Fold change /veh IGLL1 (11728026_x_at): dose or concentration left out as unconfirmed
Conditions: MV-4-11 cells, 48 hours

SMILES: Nc1ncn([C@@H]2O[C@H](CO)[C@@H](O)[C@H]2O)c(=O)n1 [azacitidine]
- Fold change /veh CLDN22 /// WWC2 (11732394_at): 1.14
